Results taken from US10369149B2, “4-(2-amino-tetrahydronaphthalenyl)pyrimidine derivative, preparation method therefor, and pharmaceutical composition for preventing or treating cancer, containing same as active ingredient” (KOREA RESEARCH INSTITUTE OF CHEMICAL TECHNOLOGY, priority 2015, dated 2019).
Read-outs that look alike come from different tables or passages of the source.

What was measured:
[1] = system: H3122, the non-small cell lung cancer cell line; experiment: ALK inhibitory activity in H3122, SRB staining of live cells; type: cell-based; details: Homo sapiens
Experimental: […] One day later, the compound of the present invention was added to each well at different concentrations of 10 μM, 2 μM, 0.4 μM, 0.08 μM, […], and 0.00032 μM. DMSO (dimethylsulfoxide) was added to the well that was not loaded with the compound by the same amount as the compound. Three days after the addition of the compound, DMEM was eliminated. 10% TCA (trichloroacetic acid) was added to fix the cells. The wells were washed with running water three times and the live cells were stained with SRB solution (1× sulphorodamine B). Then, OD was measured to calculate the population of the live cells. IC50 of the experimental compound used in the experiment above was calculated by using prism software (Version 5.01, Graphpad).
Table 2 presents the ALK inhibitory activity of the compounds of the examples of the present invention in H3122 containing ALK enzyme.

[2] = target: Ba/F3 EML4-ALK L1196M (Homo sapiens, UniProt Q9UM73, L1196M, cells depend on it); experiment: ALK inhibitory activity in Ba/F3 EML4-ALK L1196M, SRB staining of live cells; details: read-out: Ba/F3 EML4-ALK L1196M, three days
Chain of Ba/F3 EML4-ALK L1196M (Q9UM73 whole entry L1196M): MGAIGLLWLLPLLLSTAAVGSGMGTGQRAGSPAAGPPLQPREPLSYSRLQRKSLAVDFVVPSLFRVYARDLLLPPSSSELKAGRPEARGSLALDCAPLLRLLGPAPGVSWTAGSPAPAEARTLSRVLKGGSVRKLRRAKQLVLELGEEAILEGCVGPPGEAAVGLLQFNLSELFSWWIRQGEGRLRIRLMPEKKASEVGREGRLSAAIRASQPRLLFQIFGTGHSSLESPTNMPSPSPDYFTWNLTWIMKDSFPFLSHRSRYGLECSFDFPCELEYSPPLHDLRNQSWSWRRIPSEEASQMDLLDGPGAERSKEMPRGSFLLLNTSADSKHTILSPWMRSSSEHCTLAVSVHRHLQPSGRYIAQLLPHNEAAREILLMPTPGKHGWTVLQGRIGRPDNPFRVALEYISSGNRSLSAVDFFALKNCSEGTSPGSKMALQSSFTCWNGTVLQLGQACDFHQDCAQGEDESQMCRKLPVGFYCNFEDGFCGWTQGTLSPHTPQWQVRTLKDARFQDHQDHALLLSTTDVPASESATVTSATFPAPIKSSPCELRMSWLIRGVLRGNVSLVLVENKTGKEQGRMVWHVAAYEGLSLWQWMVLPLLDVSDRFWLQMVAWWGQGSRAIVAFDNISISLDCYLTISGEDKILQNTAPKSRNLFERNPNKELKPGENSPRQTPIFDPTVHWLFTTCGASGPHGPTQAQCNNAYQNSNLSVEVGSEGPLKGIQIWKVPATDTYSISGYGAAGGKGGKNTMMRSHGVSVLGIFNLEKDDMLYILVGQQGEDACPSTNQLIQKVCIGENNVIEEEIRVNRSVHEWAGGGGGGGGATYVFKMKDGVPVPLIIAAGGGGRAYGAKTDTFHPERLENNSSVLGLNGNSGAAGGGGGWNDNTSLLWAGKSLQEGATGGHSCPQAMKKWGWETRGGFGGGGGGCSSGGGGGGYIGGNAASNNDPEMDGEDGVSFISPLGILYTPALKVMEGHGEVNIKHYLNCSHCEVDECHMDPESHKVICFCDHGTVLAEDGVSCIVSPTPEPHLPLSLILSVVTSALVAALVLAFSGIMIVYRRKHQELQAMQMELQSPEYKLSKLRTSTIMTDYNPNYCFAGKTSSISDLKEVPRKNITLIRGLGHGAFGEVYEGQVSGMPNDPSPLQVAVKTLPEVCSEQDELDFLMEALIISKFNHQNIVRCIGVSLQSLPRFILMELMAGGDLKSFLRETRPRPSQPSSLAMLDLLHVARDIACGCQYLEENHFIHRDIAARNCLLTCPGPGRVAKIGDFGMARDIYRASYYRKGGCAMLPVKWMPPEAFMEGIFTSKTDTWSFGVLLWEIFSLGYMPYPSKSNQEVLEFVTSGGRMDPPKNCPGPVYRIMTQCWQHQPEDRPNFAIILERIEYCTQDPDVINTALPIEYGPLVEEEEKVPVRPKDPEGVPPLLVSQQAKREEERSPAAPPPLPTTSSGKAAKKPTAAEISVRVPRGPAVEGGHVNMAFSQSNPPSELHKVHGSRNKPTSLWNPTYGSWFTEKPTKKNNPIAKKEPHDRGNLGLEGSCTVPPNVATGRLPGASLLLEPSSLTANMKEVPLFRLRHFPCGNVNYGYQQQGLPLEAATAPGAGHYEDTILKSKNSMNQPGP
Experimental: Particularly, 4,000 ALK L1196M cells containing ALK enzyme were distributed in each well of a 96 well plate together with 100 μl of DMEM (Dulbecco's Modified Eagle's Medium). […] DMSO (dimethylsulfoxide) was added to the well that was not loaded with the compound by the same amount as the compound. Three days after the addition of the compound, DMEM was eliminated. 10% TCA (trichloroacetic acid) was added to fix the cells. The wells were washed with running water three times and the live cells were stained with SRB solution (1× sulphorodamine B). Then, OD was measured to calculate the population of the live cells.

[3] = system: human non-small cell lung cancer cell line H3122; experiment: In vivo xenograft evaluation for H3122 induced lung cancer; parameters: species or system nude mice (BALB/c nu/nu, female); details: H3122 xenograft s.c. in nude mice, oral, q.d.×14, FIGS. 1 and 2
Source text: The nude mice (BALB/c nu/nu, female) used in this experiment were purchased from Charles River Japan, Inc. and raised and tested under SPF (Specific Pathogen Free) control. The human non-small cell lung cancer cell line H3122 maintained by Korea Research Institute of Chemical Technology was used in this experiment. The female nude mice adapted to the laboratory were implanted with cancer. Particularly, H3122 cells grown to the appropriate size for passage were cut into 3×3×3 mm^3, which was transplanted (s.c.) under the right side of the nude mouse. […] For the control, 20% PEG 400+3% Tween 80 in DDW was orally administered. For the experimental group (7 mice/group), the compound was dissolved in the same solvent of the control, which was orally administered 14 times in total (q.d.×14). The size of the cancer was measured every 2˜3 days after the administration using a caliper and the diameters (long diameter (a), short diameter (b)) of the cancer were measured. The size of the cancer (volume, V) was calculated according to mathematical formula 1. Volume (mm^3)=a×b^2/2 [Mathematical Formula 1] FIG. 1 is a graph showing the results of observing the size of cancer in the control group (CONTROL), the LDK378-treated group, and the group treated with the compound of example 14 over the time. […]

[4] = target: ALK enzyme (Homo sapiens, UniProt Q9UM73); experiment: Anaplastic lymphoma kinase (ALK) inhibitory activity, HTRF kinase assay; type: biochemical
Chain of ALK enzyme (Q9UM73 19-1620): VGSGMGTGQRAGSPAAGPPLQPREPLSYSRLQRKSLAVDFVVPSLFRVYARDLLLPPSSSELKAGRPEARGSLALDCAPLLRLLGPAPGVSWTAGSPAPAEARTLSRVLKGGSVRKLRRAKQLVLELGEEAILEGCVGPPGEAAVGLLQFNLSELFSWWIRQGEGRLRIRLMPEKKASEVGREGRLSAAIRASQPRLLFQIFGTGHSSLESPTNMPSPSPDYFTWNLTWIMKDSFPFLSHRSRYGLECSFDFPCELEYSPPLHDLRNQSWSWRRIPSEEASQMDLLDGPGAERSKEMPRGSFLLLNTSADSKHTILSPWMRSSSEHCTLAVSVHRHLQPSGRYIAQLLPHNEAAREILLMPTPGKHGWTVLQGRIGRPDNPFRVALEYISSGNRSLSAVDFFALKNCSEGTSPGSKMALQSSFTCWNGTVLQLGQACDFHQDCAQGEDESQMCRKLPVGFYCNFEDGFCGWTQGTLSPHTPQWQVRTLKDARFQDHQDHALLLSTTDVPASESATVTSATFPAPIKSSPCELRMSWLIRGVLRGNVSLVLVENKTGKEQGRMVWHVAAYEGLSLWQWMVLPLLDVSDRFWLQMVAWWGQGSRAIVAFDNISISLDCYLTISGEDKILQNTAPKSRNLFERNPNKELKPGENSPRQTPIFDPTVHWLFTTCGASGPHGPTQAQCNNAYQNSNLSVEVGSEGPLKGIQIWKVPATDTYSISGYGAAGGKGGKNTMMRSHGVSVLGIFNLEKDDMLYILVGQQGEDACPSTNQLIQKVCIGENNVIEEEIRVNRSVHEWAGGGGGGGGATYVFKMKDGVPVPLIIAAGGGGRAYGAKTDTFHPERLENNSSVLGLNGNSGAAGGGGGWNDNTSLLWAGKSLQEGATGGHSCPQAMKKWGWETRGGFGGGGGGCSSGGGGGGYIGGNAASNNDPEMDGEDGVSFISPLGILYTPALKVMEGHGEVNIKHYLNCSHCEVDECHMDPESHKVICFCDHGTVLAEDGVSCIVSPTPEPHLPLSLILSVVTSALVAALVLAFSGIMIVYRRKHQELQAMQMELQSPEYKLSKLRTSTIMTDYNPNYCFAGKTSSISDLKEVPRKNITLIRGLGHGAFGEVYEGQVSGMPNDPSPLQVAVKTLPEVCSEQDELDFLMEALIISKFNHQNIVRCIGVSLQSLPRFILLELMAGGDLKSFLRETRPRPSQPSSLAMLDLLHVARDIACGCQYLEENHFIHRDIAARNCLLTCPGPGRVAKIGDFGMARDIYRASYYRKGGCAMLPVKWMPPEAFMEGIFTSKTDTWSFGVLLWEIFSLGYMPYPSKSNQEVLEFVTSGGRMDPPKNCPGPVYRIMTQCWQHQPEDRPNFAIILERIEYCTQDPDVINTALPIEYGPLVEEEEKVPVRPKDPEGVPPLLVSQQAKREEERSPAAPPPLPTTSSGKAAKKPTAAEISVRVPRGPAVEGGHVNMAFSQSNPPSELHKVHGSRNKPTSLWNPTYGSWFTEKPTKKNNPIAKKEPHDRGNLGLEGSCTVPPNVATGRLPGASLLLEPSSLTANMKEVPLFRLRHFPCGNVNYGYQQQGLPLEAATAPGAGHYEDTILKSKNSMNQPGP

[5] = system: ALK L1196M cells containing ALK enzyme; experiment: ALK inhibitory activity in ALK L1196M cells, SRB staining of live cells; type: cell-based
Experimental: DMSO (dimethylsulfoxide) was added to the well that was not loaded with the compound by the same amount as the compound. Three days after the addition of the compound, DMEM was eliminated. 10% TCA (trichloroacetic acid) was added to fix the cells. The wells were washed with running water three times and the live cells were stained with SRB solution (1× sulphorodamine B). Then, OD was measured to calculate the population of the live cells. IC50 of the experimental compound used in the experiment above was calculated by using prism software (Version 5.01, Graphpad). […] Table 2 presents the ALK inhibitory activity of the compounds of the examples of the present invention in ALK L1196M containing ALK enzyme.

[6] = NCI-H3122, 72 h, three days, SRB, read-out: Non-small cell lung cancer cell line H3122
[7] = NCI-H3122, read-out: ALK inhibitory activity in H3122 containing ALK enzyme at the concentration range
[8] = read-out: anaplastic lymphoma kinase (ALK) inhibitory activity at the concentration
[9] = 72 h, ALK L1196M cells, three days, SRB, read-out: ALK L1196M
[10] = ALK L1196M cells, read-out: ALK inhibitory activity in ALK L1196M containing ALK enzyme at the concentration

| SMILES | IC50 [1, 6] [µM] | IC50 [1, 7] [µM] | GI50 [2] [µM] | IC50 ([4]; HTRF, read-out: ALK) [µM] | IC50 [4, 8] [µM] | effect of inhibiting cancer size [3] | IC50 [5, 9] [µM] | IC50 [5, 10] [µM] | IC50 ([5]; 72 h, read-out: ALK L1196M) [µM] |
| --- | --- | --- | --- | --- | --- | --- | --- | --- | --- |
| COc1cc2c(cc1Nc1ncc(Cl)c(Nc3ccccc3S(=O)(=O)C(C)C)n1)C(C)(C)/C(=N/N1CCN(C)CC1)CC2 [Example 19, (E)-5-chloro-N4-(2-(isopropylsulfonyl)phenyl)-N2-(3-methoxy-8,8-dimethyl-7-(4-methylpiperazine-1-ylimino)-5,6,7,8-tetrahydronaphthalene-2-yl)pyrimidine-2,4-diamine] | > 0.1 | – | > 0.1 | 0.01 to 0.1 | – | – | > 0.1 | – | – |
| COc1cc2c(cc1Nc1ncc(Cl)c(Nc3ccccc3S(=O)(=O)C(C)C)n1)C(C)(C)/C(=N/NC(C)=O)CC2 [Example 20, (E)-N-(7-(5-chloro-4-(2-(isopropylsulfonyl)phenylamino)pyrimidine-2-ylamino)-6-methoxy-1,1-dimethyl-3,4-dihydronaphthalene-2(1H)-yladene)acetohydrazide] | > 0.1 | – | > 0.1 | 0.01 to 0.1 | – | – | > 0.1 | – | – |
| COc1cc2c(cc1Nc1ncc(Cl)c(Nc3ccccc3S(=O)(=O)C(C)C)n1)C(C)(C)/C(=N/NC(N)=O)CC2 [Example 21, (E)-2-(7-(5-chloro-4-(2-(isopropylsulfonyl)phenylamino)pyrimidine-2-ylamino)-6-methoxy-1,1-dimethyl-3,4-dihydronaphthalene-2(1H)-yladene)hydragencarboxamide] | > 0.1 | – | > 0.1 | < 0.01 | ≤ 0.01 | – | 0.01 to 0.1 | – | – |
| COc1cc2c(cc1Nc1ncc(Cl)c(Nc3ccccc3S(=O)(=O)C(C)C)n1)C(C)(C)C(N)CC2 (stereo not drawn) [Example 23, N2-(7-amino-3-methoxy-8,8-dimethyl-5,6,7,8-tetrahydronaphthalene-2-yl)-5-chloro-N4-(2-(isopropylsulfonyl)phenyl)pyrimidine-2,4-diamine] | > 0.1 | – | > 0.1 | 0.01 to 0.1 | – | – | – | – | 0.01 to 0.1 |
| COc1cc2c(cc1Nc1ncc(Cl)c(Nc3ccccc3S(=O)(=O)C(C)C)n1)C(C)(C)C(O)CC2 (stereo not drawn) [Example 25, 7-(5-chloro-4-(2-(isopropylsulfonyl)phenylamino)pyrimidine-2-ylamino)-6-methoxy-1,1-dimethyl-1,2,3,4-tetrahydronaphthalene-2-ol] | > 0.1 | – | > 0.1 | 0.01 to 0.1 | – | – | 0.01 to 0.1 | – | – |
| COc1cc2c(cc1Nc1ncc(Cl)c(Nc3ccccc3S(=O)(=O)C(C)C)n1)CCC(NC(=O)CN(C)C)C2(C)C (stereo not drawn) [Example 27, N-(6-(5-chloro-4-(2-(isopropylsulfonyl)phenylamino)pyrimidine-2-ylamino)-7-methoxy-1,1-dimethyl-1,2,3,4-tetrahydronaphthalene-2-yl)-2-(dimethylamino)acetamide] | 0.01 to 0.1 | 0.01 to 0.1 | 0.01 to 0.1 | < 0.01 | ≤ 0.01 | – | < 0.01 | ≤ 0.01 | – |
| COc1cc2c(cc1Nc1ncc(Cl)c(Nc3ccccc3S(=O)(=O)C(C)C)n1)CCC(N(C)C)C2(C)C (stereo not drawn) [Example 28, 5-chloro-N2-(6-(dimethylamino)-3-methoxy-5,5-dimethyl-5,6,7,8-tetrahydronaphthalene-2-yl)-N4-(2-(isopropylsulfonyl)phenyl)pyrimidine-2,4-diamine] | 0.01 to 0.1 | 0.01 to 0.1 | 0.01 to 0.1 | < 0.01 | ≤ 0.01 | – | < 0.01 | ≤ 0.01 | – |

Second part, led by results:

| IC50 [1, 6] [µM] | IC50 [1, 7] [µM] | GI50 [2] [µM] | IC50 ([4]; HTRF, read-out: ALK) [µM] | IC50 [4, 8] [µM] | SMILES | effect of inhibiting cancer size [3] | IC50 [5, 9] [µM] | IC50 [5, 10] [µM] | IC50 ([5]; 72 h, read-out: ALK L1196M) [µM] |
| --- | --- | --- | --- | --- | --- | --- | --- | --- | --- |
| 0.01 to 0.1 | 0.01 to 0.1 | 0.01 to 0.1 | < 0.01 | ≤ 0.01 | COc1cc2c(cc1Nc1ncc(Cl)c(Nc3ccccc3S(=O)(=O)C(C)C)n1)CC/C(=N\N1CCN(C)CC1)C2(C)C [Example 14, (E)-5-chloro-N4-(2-(isopropylsulfonyl)phenyl)-N2-(3-methoxy-5,5-dimethyl-6-(4-methylpiperazine-1-ylimino)-5,6,7,8-tetrahydronaphthalene-2-yl)pyrimidine-2,4-diamine] | excellent, similar to LDK378 | < 0.01 | ≤ 0.01 | – |
| 0.01 to 0.1 | 0.01 to 0.1 | 0.01 to 0.1 | < 0.01 | ≤ 0.01 | COc1cc2c(cc1Nc1ncc(Cl)c(Nc3ccccc3S(=O)(=O)C(C)C)n1)CCC(N)C2(C)C (stereo not drawn) [Example 22, N2-(6-amino-3-methoxy-5,5-dimethyl-5,6,7,8-tetrahydronaphthalene-2-yl)-5-chloro-N4-(2-(isopropylsulfonyl)phenyl)pyrimidine-2,4-diamine] | excellent, similar to LDK378 | < 0.01 | ≤ 0.01 | – |
| 0.01 to 0.1 | 0.01 to 0.1 | > 0.1 | 0.01 to 0.1 | – | COc1cc2c(cc1Nc1ncc(Cl)c(Nc3ccccc3S(=O)(=O)C(C)C)n1)CCC(O)C2(C)C (stereo not drawn) [Example 24, 6-(5-chloro-4-(2-(isopropylsulfonyl)phenylamino)pyrimidine-2-ylamino)-7-methoxy-1,1-dimethyl-1,2,3,4-tetrahydronaphthalene-2-ol] | – | 0.01 to 0.1 | – | – |
| 0.01 to 0.1 | 0.01 to 0.1 | 0.01 to 0.1 | < 0.01 | ≤ 0.01 | COc1cc2c(cc1Nc1ncc(Cl)c(Nc3ccccc3S(=O)(=O)C(C)C)n1)CCC(NC(=O)CO)C2(C)C (stereo not drawn) [Example 26, N-(6-(5-chloro-4-(2-(isopropylsulfonyl)phenylamino)pyrimidine-2-ylamino)-7-methoxy-1,1-dimethyl-1,2,3,4-tetrahydronaphthalene-2-yl)-2-hydroxyacetamide] | – | < 0.01 | ≤ 0.01 | – |
